Measured values published in patent US11938121B2, “Treatment of infections and biofilm formation using a cellulose synthase inhibitor” (Purdue Research Foundation, priority 2020, dated 2024).

Key:
rice (Oryza sativa) = assay: Rice seedling root growth; assay type: in vivo; settings: 20 μM
Description: (§1) ES20 has broad spectrum inhibitory effect on the growth of both dicotyledonous and monocotyledonous plants (Huang and Zhang, Plant Signal Behav. 2020, 15, 1780039). We tested whether ES20-1 has stronger inhibitory effect on the growth of monocotyledon plants than ES20. We grew rice (Oryza sativa) and maize (Zea mays) seedlings on the same concentrations of ES20 and ES20-1 and compared their effects on growth.

[1] = test system: PIN2-GFP, GFP-PIP2a, GFP-HDEL, VHA-a1-GFP, YFP-Got1p; assay: Live-cell imaging of fluorescence-tagged marker proteins; assay type: cell-based, Arabidopsis thaliana; settings: 6 μM, 2 h
Procedure: To test the effect of ES20-1 on cellular localization of endomembrane marker proteins, transgenic plants expressing different fluorescence-tagged proteins were grown on ½-strength MS agar plates for 5 d under continuous light. The seedlings were incubated in ½-strength MS liquid media supplemented with 6 μM ES20-1 for 2 h. The images were collected by Zeiss 710 laser scanning confocal microscope equipped with 40×/1.2 NA water objective. For images of GFP-tagged proteins, the 488-nm laser line was used as an excitation source and emission light at 493-598 nm was collected. For images of YFP-tagged proteins, the 514-nm laser line was used as an excitation source and the emission light at 519-621 nm was collected.

maize (Zea mays) = assay: Maize seedling root growth; assay type: in vivo; settings: 20 μM
Description: as §1

GFP-CESA6c^P595S = biological target: T1, GFP-CESA6c^P595S (Arabidopsis thaliana, UniProt Q94JQ6, P595S); assay: MST assay with GFP-CESA6c^P595S; assay type: binding
T1 construct: We purified AtCESA6 central cytoplasmic domain carrying missense mutation P595S (CESA6c^P595S); made in house; host or cells: E. coli (inferred from the wild-type CESA6c construct that served as template)
Description: To obtain the central cytosolic domain of AtCESA6 for the MST assay, we inserted the GFP coding sequence into the SacI and PstI restriction enzyme sites of the pRSF-Duet-1 vector (Huang et al., 2020). The GFP coding sequence was amplified from the pUBN-GFP-DEST vector. The sequence encoding the central cytosolic domain of CESA6 (CESA6c) was amplified from Col-0 cDNA and fused with GFP at the C-terminus. CESA6c construct was used as a template for creating CESA6c^P595S construct by site-directed mutagenesis. Protein purification was performed as previously described (Huang et al., 2020).
MST assays were carried out using a Monolith NT.115 (NanoTemper) machine at the Chemical Genomics Facility at Purdue University. […] The ES20-1 was dissolved in DMSO, and the final concentration of DMSO was 5% (vol/vol). MST standard capillaries were used to load the samples into the MST instrument. Triplicate reactions were performed for each test. The MST data were processed using MO. Affinity Analysis Version 2.3 software.

Komagataeibacter xylinus = assay: K. xylinus cell growth on HS solid medium; assay type: cell-based; settings: 6 days
Description: Based on primary protein sequence analysis and a comparison of three-dimensional protein structures, the catalytic sites of cellulose synthases are highly conserved across kingdoms (Huang et al., 2020, Purushotham et al., 2020). The amino acids that are directly involved in glucan chain initiation, elongation, and translocation are conserved between plant and bacterial cellulose synthases (Huang et al., 2020). Based on the conservation of catalytic sites in cellulose synthases, we hypothesized that ES20 and ES20-1 would inhibit bacterial cellulose biosynthesis as well. We chose to test the effects of ES20 and ES20-1 on cell growth and cellulose production in Komagataeibacter xylinus (K. xylinus, previously known as Gluconacetobacter xylinus) because this bacterium produces abundant cellulose. We first tested whether ES20 and ES20-1 affect K. xylinus cell growth. We grew K. xylinus cells in liquid […] (HS) medium and then we inoculated 20 μL of series diluted culture to HS solid growth medium supplemented with DMSO (0.1%) or different concentrations of ES20 and ES20-1. […] We found ES20 and ES20-1 affect K. xylinus colony morphology as well. […] Wrinkles radiating structure is often observed in cellulose-producing bacteria strains and this structure is often affected when cellulose biosynthesis is disrupted.
Komagataeibacter xylinus (previously named Gluconacetobacter xylinus) ATCC strain 700178 was obtained from ATCC (Manassas, Va., USA) to evaluate cellulose production. HS (Hestrin and Schramm) medium was used for culture; HS liquid medium contains 2.0% glucose (w/v), 0.5% yeast extract (w/v), 0.5% peptone (w/v), 0.27% Na2HPO4 (w/v), and 0.15% citric acid (w/v), pH 5.0, and HS solid medium was solidified with 1.8% agar (w/v). To prepare the initial inoculation source, a single K. xylinus colony grown on HS solid medium was transferred to HS liquid medium and cultured at 26° C. for 5 days under static conditions. We used cells from the bottom of the liquid culture as the initial inoculation source to avoid biofilm aggregates at the air-liquid interface. To test the effect of ES20 and ES20-1 on the bacteria growth, initial inoculation source was series diluted and 20 μL culture from each diluted solution was dropped on HS solid medium supplemented with DMSO (0.1%) or different concentrations of ES20 and ES20-1 and cultured at 26° C. for 6 days after the dropped culture was completely dry. To test the effects of ES20 and ES20-1 on cellulose production, the prepared inoculation source was inoculated at a dilution ratio of 1:1000 dilution in HS liquid medium supplemented with 0.1% DMSO or 20 μM of ES20 or ES20-1. Static cultivation was carried out in a 26° C. incubator, and agitated cultivation was carried out at 26° C. with shaking at 220 rpm. […]

Cc1ccccc1C(=O)NNC(=S)NC(=O)c1ccccc1 [ES20-1]
rice root growth inhibition (rice (Oryza sativa); 6-day-old seedlings): could inhibit the root growth | degree of rice root growth inhibition compared with ES20 (rice (Oryza sativa); same dosage): much stronger than that of the same dosage of ES20 | cellular localization of PIN2-GFP [1]: not significantly affected | cellular localization of organelle marker proteins GFP-PIP2a, GFP-HDEL, VHA-a1-GFP, YFP-Got1p [1]: are not affected | maize root growth inhibition (maize (Zea mays); 6-day-old seedlings): could inhibit the root growth | degree of maize root growth inhibition compared with ES20 (maize (Zea mays); same dosage): much stronger than that of the same dosage of ES20 | interaction with CESA6c^P595S (GFP-CESA6c^P595S): interacts | K. xylinus cell growth inhibition (Komagataeibacter xylinus; 20 μM and 50 μM): inhibit K. xylinus cell growth at both 20 μM and 50 μM concentrations | K. xylinus colony morphology (wrinkles radiating structures) (Komagataeibacter xylinus; 20 μM): the wrinkles are not obvious
